From patent US7097854B2, “Amino alcohol derivatives, process for their production and pharmaceutical preparations and reagents containing these compounds” (MediGene Oncology GmbH, priority 1996, dated 2006)

How the values were obtained:
HeLa cells = assay: Transfection with pCMV-CAT, CAT-Elisa, HeLa cells; format: cell-based, human; details: relative to DOTAP = 1, pCMV-CAT plasmid
From the text: (§1) The testing of DOTAP or the compounds of the invention comprises transfection of the test cells, protein determination by means of the BCA method (Pierce) and carrying out a CAT Elisa and these are described here using DOTAP (Boehringer Mannheim) as an example. After ultrasonication the cationic lipid DOTAP forms unilamellar vesicles (liposomes) in aqueous solution which spontaneously form stable complexes with the DNA (pCMV-CAT). These complexes adhere to the cell surface, fuse with the cell membrane and pCMV-CAT is released into the cytoplasm. The transiently expressed CAT is detected in the cell lysate.
HeLa, human cancer epithelial cell line from the cervix, ATCC CCL 2
(§2) The composition of the test medium used for the respective cell line corresponds with that of the respective culture medium, only the content of FCS is reduced by 50% (only 5% FCS instead of 10%). […]
(§3) The CAT (chloroamphenicol acetyl transferase)-Elisa serves to quantitatively determine the CAT expression in eukaryotic cells after transfection with a plasmid that contains CAT as the reporter gene. […] Anti-CAT-DIG is detected in the third step by a peroxidase-labelled antibody against digoxigenin (Anti-DIG-POD) and visualized in a subsequent substrate reaction. […]
(§4) The microtitre plate is measured at 405 nm and a reference wavelength of 492 nm with an Elisa reader.

Calu cells = assay: Transfection with pCMV-CAT, CAT-Elisa, Calu cells; format: cell-based, human; details: relative to DOTAP = 1, pCMV-CAT plasmid
From the text: as §1
CALU 1, human cancer epithelial cell line from the lung, ECACC 93120818 or another suitable test cell line
as §2, §3, §4

SMILES	melting point [°C]	relative transfection efficiency in a CAT-Assay (DOTAP = 1) (HeLa cells)	relative transfection efficiency in a CAT-Assay (DOTAP = 1) (Calu cells)
CCCCCCCCCCCC(=O)OCCN(CCCNCCCN)CCOC(=O)CCCCCCCCCCC.Cl	245 to 246	–	–
CCCCCCCCCCCCCC(=O)OCCN(CCOC(=O)CCCCCCCCCCCCC)CC1CCN(CCCN(C)C)CC1 [Example 34, Tetradecanoic acid-2-{(2-tetradecanoyloxy-ethyl)-[1-(3-dimethylamino-propyl)-piperidin-4-yl-methyl]-amino}-ethyl ester]	–	3.2	3.9
CCCCCCCCCCCCCC(=O)OCCN(CCCCNCCCN)CCOC(=O)CCCCCCCCCCCCC [Example 60, Tetradecanoic acid-2-{[4-(3-amino-propylamino)-butyl]-(2-tetradecanoyloxy-ethyl)-amino}-ethyl ester]	–	3.2	3.4
